# Where two headings read alike, the source gives them in different places.
# Tests used:
# mice with CIA [1] = type: in vivo
# Description: In brief, the plasmid encodes the Fluc gene under the control of the CMV promoter and a human growth hormone polyadenylation signal. The transgene cassette is flanked by AAV-2 inverted terminal repeats and is packaged in capsid from AAV5.[Gao G P et al; PNAS 2002; 11854] The genome containing vector and empty AAV capsid particles were purified by combined chromatography and cesium chloride density gradient centrifugation. […] Vector titers were determined by qPCR and expressed as vector genomes/ml (vg/ml).
# Intra-articular rAAV5 expression was investigated in male DBA mice (8-12 week old; Harlan Sprague Dawley, Horst, The Netherlands) in 5 animal experiments. Mice were injected with rAAV5.CMV.Fluc in both knee joints (with or without injection of ankle joints) and monitored periodically for luciferase expression (from 5 days up till 6 months). For animals without arthritis the vector was administered on day 1, in arthritic animals the vector was injected on day 17 or 24 after immunization, at the onset of disease. Animals received between 1.26e10 and 1.5e10 vg per knee joint (in a volume of 5 μl) and 0.75e10 vg per ankle joint (in a volume of 2.5 μl). Empty capsids were co-administered with the genome containing particles in several groups in a 5:1 or 20:1 ratio (ratio expressed as empty capsids to genome containing vectors). Groups consisted of 5 to 18 animals.
# Two days prior to vector administration, triamcinolone was administered intra-muscularly (i.m.), similar to the use in RA patients. […] Taking into account the faster metabolic rate in mice (factor 12.5), a dose of 5 mg/kg bodyweight was used, administered in a volume of 50 μl. Control groups received an i.m. injection with 50 μl NaCl. […]
# (§1) Luciferase expression was measured at different time points after vector administration, from day 3 up till 6 months in different experiments. […] Image processing and signal intensity quantification and analysis were performed using M3 Vision (Biospace Lab). […] The number of photons emitted per second per square centimetre per steradian was calculated as a measure of luciferase activity.
# Luminescence over time was investigated using generalized estimating equations (GEE) to allow for longitudinal analysis (including all available longitudinal data and allowing unequal numbers of repeated measurements) (Twisk (2004) Eur. J. Epidemiol. 19(8):769-776). All other statistics were analyzed using Graphpad Prism (Ja Jolla, Calif., USA). […]
# mice with CIA [2] = test: Arthritis activity clinical score in CIA mice; type: in vivo
# Description: Collagen induced arthritis (CIA) was induced by means of an intradermal injection of 100 μl collagen type II (2 mg/ml), diluted 1:1 in CFA (mineral oil and heat-killed M. Tuberculosis 2 mg/ml) (Chondrex Inc., Redmond, Wash., USA). On day 21 a booster injection was administered intraperitoneally containing 100 μg collagen type II dissolved in 100 μl NaCl.
# Arthritis activity was scored 3-weekly from day 18 on with a semi-quantitative scoring system, each mouse paw was analyzed separately (0—normal; 1—swelling and/or erythema of 1 joint; 2—swelling in multiple joints; 3—swelling of all joints; 4—swelling of whole paw and at least one of the following symptoms: ankylosis, loss of function).
# [3] = system: macrophages (F4/80+, CD68+); test: FLOW cytometry of macrophages in spleen and synovium of arthritic mice; type: in vivo; settings: 48 hrs after triamcinolone 5 mg/kg i.m.
# Description: Macrophages in spleen and synovium were analyzed by FLOW cytometry. Briefly, synovial cells were extracted by scraping cells from the joint followed by digestion with Liberase/DNase for 30 min at 37° C. Cells were then washed (PBS/EDTA) and passed through a cell strainer. Synovial cells were centrifuged (1400 rpm, 5 min, 4° C.) and resuspended in FACS buffer (PBS+1% BSA). Due to the low number of cells in the synovium, all animals from each group were pooled. Spleen cells were isolated by mechanical disruption and flushing cells through a cell strainer. Red blood cells were lysed by addition of RBC lysis buffer (Life Technologies), followed by 10 min incubation on ice. Cells were centrifuged and resuspended in FACS buffer. Cells (pooled synovium or splenocytes (1e6 cells) were blocked with 5% normal mouse serum (Sanquin) and stained with F4/80-APC and CD68-FITC labeled antibodies (BD Biosciences). Data was acquired on a BD Canto2 and was analyzed using FlowJo software (FLOWJO LLC, Ashland Oreg.)
# To further investigate the mechanism of action behind the effect of triamcinolone on transgene expression, an ex vivo analysis was carried out on synovial tissue and splenocytes to assess the effect on the numbers and activity of macrophages and other cell types. […]
# spleen = test: Spleen size after triamcinolone in arthritic mice; type: in vivo
# Description: FIG. 5: Effect of triamcinolone on spleen size and cell populations in different tissues. Arthritis was induced in several groups (n=5 per group), triamcinolone (5 mg/kg) or saline as control was administered intramuscularly on day 22 (2 days before vector administration). […]
# Immunization, intra-articular injections and in vivo imaging were performed under isoflurane anaesthesia (3% isoflurane and oxygen). At the end of the experiments, animals were sacrificed by cardiac puncture under isoflurane anaesthesia, followed by cervical dislocation, after which hind paws, blood, lymph nodes and spleen were collected. The studies were reviewed and approved by the animal care and use committee of the University of Amsterdam (Amsterdam, The Netherlands; Permit Numbers: ART 102881, ART 102656, ART 102793, ART 102948, and ART 103021) and carried out in strict accordance with the recommendations in the Dutch Law on Animal Welfare (Wet op Dierproeven). Animals were maintained under pathogen-free conditions in the animal facility of the University of Amsterdam.
# healthy mice [4] = test: Intra-articular rAAV5 luciferase expression, in vivo imaging in healthy mice; settings: AAV5-CMV-Fluc 1.26e10 vg/joint, compared with vector alone, up to week 8
# Description: (§2) In brief, the plasmid encodes the Fluc gene under the control of the CMV promoter and a human growth hormone polyadenylation signal. […] The genome containing vector and empty AAV capsid particles were purified by combined chromatography and cesium chloride density gradient centrifugation. […] Vector titers were determined by qPCR and expressed as vector genomes/ml (vg/ml).
# Intra-articular rAAV5 expression was investigated in male DBA mice (8-12 week old; Harlan Sprague Dawley, Horst, The Netherlands) in 5 animal experiments. Mice were injected with rAAV5.CMV.Fluc in both knee joints (with or without injection of ankle joints) and monitored periodically for luciferase expression (from 5 days up till 6 months). […] Empty capsids were co-administered with the genome containing particles in several groups in a 5:1 or 20:1 ratio (ratio expressed as empty capsids to genome containing vectors). […]
# as §1
# air pouch membrane = test: Luciferase expression in air pouch synovial inflammation (APSI) model; type: in vivo, mice; settings: triamcinolone 5 mg/kg i.m. on d9, vector 3.16e11 vg on d11; assay d30
# Description: Air pouches were formed as previously described (O'Boyle et al. (2009) FASEB J. 23 (11): 3906-3916). Briefly, 3 mls of air was injected subcutaneously into the back of each animal. The air pouches were kept inflated by re-injection of air as necessary. rAAV5.CMV.Fluc vector (3.16e11 vg) was administered into the pouch in a volume of 1 ml on d0, d11, or d18 post air pouch formation. For triamcinolone treated animals, triamcinolone was administered (5 mg/kg) by i.m. injection 2 days prior to vector administration on d11. On d30, mice were sacrificed and air pouch membrane was removed and snap frozen. Frozen air pouch tissue was homogenized in passive lysis buffer (Promega) and luciferase was measured by standard luciferase assay (Promega).
# The air pouch synovial inflammation (APSI) model was initially developed as a way to model human synovium in a mouse. It involves the injection of air under the skin on the back of a mouse. After 6-7 days, a lining membrane will form around this air pouch. This lining is very similar to the synovial lining that forms around the joint cavity, consisting primarily of fibroblast like cells and macrophages. […] We hypothesized that perhaps the macrophages lining the air pouch membrane were inhibiting the transduction of the vector (similar to what we have observed in intra-articular injected vector). […]
# healthy mice [5] = test: Intra-articular rAAV2 luciferase expression, in vivo imaging in healthy mice; settings: AAV2-CMV-Fluc 1.26e10 vg/joint, compared with vector alone, up to week 4
# Description: as §2
# Luciferase expression was measured at different time points after vector administration, from day 3 up till 6 months in different experiments. D-luciferin potassium-salt substrate (Caliper Life Sciences, Hopkinton, Mass., USA) was injected intraperitoneally (150 mg/kg of body weight, in a volume of approximately 200 μl). Photon counts were acquired 10 minutes after substrate administration for 5 minutes using a cooled charge-coupled device (CCD) camera system (Photon Imager, Biospace Lab, Paris, France). […] Image processing and signal intensity quantification and analysis were performed using M3 Vision (Biospace Lab). […] The number of photons emitted per second per square centimetre per steradian was calculated as a measure of luciferase activity.
# To test this hypothesis, we performed an experiment were we evaluated if triamcinolone and empty capsid could enhance gene expression from a serotype that is very different from AAV5, that being AAV2. […] Luciferase expression was monitored by live animal IVIS imaging.
smiles,measurement,setting,value
C[C@]12C=CC(=O)C=C1CC[C@H]1[C@@H]3C[C@@H](O)[C@](O)(C(=O)CO)[C@@]3(C)C[C@H](O)[C@@]12F [triamcinolone],rAAV5.CMV.Fluc expression (luminescence),"mice with CIA [1]; agent given 48 hours before i.a. vector (triamcinolone 5 mg/kg i.m.; liposomal clodronate 5 μl/g i.v.), over 4 weeks",improved rAAV5.CMV.Fluc expression
same,"luciferase expression (generalized estimating equations), compound added separately",mice with CIA [1]; followed 6 months,trend towards increased expression (not significant)
same,gene expression (luciferase),mice with CIA [1]; triamcinolone 5 mg/kg locally (i.a.) 2 days prior to i.a. vector + empty capsids 5:1,enhancement of gene expression
same,gene expression (luciferase),mice with CIA [1]; triamcinolone 5 mg/kg systemically (i.m.) 2 days prior to i.a. vector + empty capsids 5:1,enhancement of gene expression
same,arthritis activity (clinical score),"mice with CIA [2]; Example 2, up to 4 weeks",trend towards reduced arthritis activity
same,arthritis activity (clinical score),"mice with CIA [2]; Example 3, up till week 4",arthritis activity was lower
same,"relative percentage of macrophages (CD68+, F4-80+) in the spleen",[3]; compared with saline,remained similar
same,percentage of macrophages in the synovium,[3]; pooled animals per group,decreased
same,spleen weight,spleen; 3 days after triamcinolone/saline administration,significantly reduced
same,decrease of absolute volume of spleen,"spleen; after triamcinolone 5 mg/kg i.m., at d25, p=0.0011",4 fold
same,"intra-articular AAV5 gene expression (luciferase, IVIS)",healthy mice [4],increased gene expression
same,luciferase expression in air pouch membrane,air pouch membrane,luciferase expression was only observed
same,"intra-articular AAV2 gene expression (luciferase, IVIS)",healthy mice [5],increased gene expression
